Laboratory results as given in ChEMBL document CHEMBL1153045, “Aminopiperidine-fused imidazoles as dipeptidyl peptidase-IV inhibitors” (Bioorg Med Chem Lett, 2009).
pIC50: −log10 of the molar value.

Experiments:
Dipeptidyl peptidase 8 = Dipeptidyl peptidase 8 (Homo sapiens, UniProt Q6V1X1); assay: Inhibition of human DPP8 expressed in baculovirus by continuous fluorescent assay
Dipeptidyl peptidase 9 = Dipeptidyl peptidase 9 (Homo sapiens, UniProt Q86TI2); assay: Inhibition of human DPP9 expressed in baculovirus by continuous fluorescent assay
[1] = Half life in rat at 1 mg/kg, iv or 2 mg/kg, po; format: ADME, organism-based; conditions: in vivo
[2] = Oral bioavailability in rat at 2 mg/kg, po; format: ADME, organism-based; conditions: in vivo
[3] = Plasma clearance in rat at 1 mg/kg, iv or 2 mg/kg, po; format: ADME, organism-based
Cytochrome P450 2D6 = Cytochrome P450 2D6 (Homo sapiens, UniProt P10635); assay: Inhibition of CYP2D6; format: ADME
[4] = Inhibition of rabbit L-type calcium channel; design: species or system Oryctolagus cuniculus
Dipeptidyl peptidase 2 = Dipeptidyl peptidase 2 (Homo sapiens, UniProt Q9UHL4); assay: Inhibition of human recombinant QPP transfected in insect SF9 cells
Dipeptidyl peptidase 4 = Dipeptidyl peptidase 4 (Mus musculus, UniProt P28843); assay: Inhibition of C57BL/6N mouse DPP4
[5] = Half life in dog at 1 mg/kg, iv or 2 mg/kg, po; format: ADME, organism-based, Canis lupus familiaris; conditions: in vivo
[6] = Plasma concentration in C57BL/6N lean mouse at 1 mg/kg, po administered as single dose 60 mins before dextrose challenge by oral glucose tolerance test; format: ADME, organism-based; design: dose 1 mg/kg, route oral
Mus musculus [7] = assay: Reduction in glucose excursion in C57BL/6N lean mouse at 0.1 mg/kg, po administered as single dose 60 mins before dextrose challenge by oral glucose tolerance test; format: functional; design: scale not given: the % may be the effect or the level left
[8] = Half life in rhesus monkey at 1 mg/kg, iv or 2 mg/kg, po; format: ADME, organism-based, Macaca mulatta; conditions: in vivo
[9] = Oral bioavailability in mouse at 2 mg/kg, po; format: ADME, organism-based; conditions: in vivo
[10] = Oral bioavailability in dog at 2 mg/kg, po; format: ADME, organism-based, Canis lupus familiaris; conditions: in vivo
[11] = Plasma clearance in dog at 1 mg/kg, iv or 2 mg/kg, po; format: ADME, organism-based, Canis lupus familiaris
[12] = Oral bioavailability in rhesus monkey at 2 mg/kg, po; format: ADME, organism-based, Macaca mulatta; conditions: in vivo
Mus musculus [13] = assay: Inhibition of DPP4 in C57BL/6N lean mouse at 1 mg/kg, po administered as single dose 60 mins before dextrose challenge by oral glucose tolerance test; format: functional
[14] = Fraction unbound in mouse plasma; format: ADME, cell-free
[15] = Half life in mouse at 1 mg/kg, iv or 2 mg/kg, po; format: ADME, organism-based; conditions: in vivo
[16] = Plasma clearance in mouse at 1 mg/kg, iv or 2 mg/kg, po; format: ADME, organism-based
[17] = Plasma clearance in rhesus monkey at 1 mg/kg, iv or 2 mg/kg, po; format: ADME, organism-based, Macaca mulatta
Mus musculus [18] = assay: Reduction in glucose excursion in C57BL/6N lean mouse at 3 mg/kg, po administered as single dose 60 mins before dextrose challenge by oral glucose tolerance test; format: functional; design: scale not given: the % may be the effect or the level left
[19] = molecular target: Voltage-gated inwardly rectifying potassium channel KCNH2 (Homo sapiens, UniProt Q12809); assay: Inhibition of human ERG
[20] = Metabolic stability in rat liver microsomes assessed as compound remaining after 60 mins; format: ADME, Microsome; conditions: read-out: Stability
[21] = Metabolic stability in human liver microsomes assessed as compound remaining after 60 mins; format: ADME, Microsome; conditions: read-out: Stability
[22] = Metabolic stability in rhesus monkey liver microsomes assessed as compound remaining after 60 mins; format: ADME, Macaca mulatta, Microsome; conditions: read-out: Stability
[23] = Metabolic stability in dog liver microsomes assessed as compound remaining after 60 mins; format: ADME, Canis lupus familiaris, Microsome; conditions: read-out: Stability
[24] = Metabolic stability in dog hepatocytes assessed as compound remaining after 60 mins; format: ADME, cell-based, Canis lupus familiaris, Hepatocyte; conditions: read-out: Stability
[25] = Metabolic stability in human hepatocytes assessed as compound remaining after 60 mins; format: ADME, cell-based, Hepatocyte; conditions: read-out: Stability
[26] = Metabolic stability in rhesus monkey hepatocytes assessed as compound remaining after 60 mins; format: ADME, cell-based, Macaca mulatta, Hepatocyte; conditions: read-out: Stability
[27] = Metabolic stability in rat hepatocytes assessed as compound remaining after 60 mins; format: ADME, cell-based, Hepatocyte; conditions: read-out: Stability

Chain of Voltage-gated inwardly rectifying potassium channel KCNH2 (Q12809 whole entry): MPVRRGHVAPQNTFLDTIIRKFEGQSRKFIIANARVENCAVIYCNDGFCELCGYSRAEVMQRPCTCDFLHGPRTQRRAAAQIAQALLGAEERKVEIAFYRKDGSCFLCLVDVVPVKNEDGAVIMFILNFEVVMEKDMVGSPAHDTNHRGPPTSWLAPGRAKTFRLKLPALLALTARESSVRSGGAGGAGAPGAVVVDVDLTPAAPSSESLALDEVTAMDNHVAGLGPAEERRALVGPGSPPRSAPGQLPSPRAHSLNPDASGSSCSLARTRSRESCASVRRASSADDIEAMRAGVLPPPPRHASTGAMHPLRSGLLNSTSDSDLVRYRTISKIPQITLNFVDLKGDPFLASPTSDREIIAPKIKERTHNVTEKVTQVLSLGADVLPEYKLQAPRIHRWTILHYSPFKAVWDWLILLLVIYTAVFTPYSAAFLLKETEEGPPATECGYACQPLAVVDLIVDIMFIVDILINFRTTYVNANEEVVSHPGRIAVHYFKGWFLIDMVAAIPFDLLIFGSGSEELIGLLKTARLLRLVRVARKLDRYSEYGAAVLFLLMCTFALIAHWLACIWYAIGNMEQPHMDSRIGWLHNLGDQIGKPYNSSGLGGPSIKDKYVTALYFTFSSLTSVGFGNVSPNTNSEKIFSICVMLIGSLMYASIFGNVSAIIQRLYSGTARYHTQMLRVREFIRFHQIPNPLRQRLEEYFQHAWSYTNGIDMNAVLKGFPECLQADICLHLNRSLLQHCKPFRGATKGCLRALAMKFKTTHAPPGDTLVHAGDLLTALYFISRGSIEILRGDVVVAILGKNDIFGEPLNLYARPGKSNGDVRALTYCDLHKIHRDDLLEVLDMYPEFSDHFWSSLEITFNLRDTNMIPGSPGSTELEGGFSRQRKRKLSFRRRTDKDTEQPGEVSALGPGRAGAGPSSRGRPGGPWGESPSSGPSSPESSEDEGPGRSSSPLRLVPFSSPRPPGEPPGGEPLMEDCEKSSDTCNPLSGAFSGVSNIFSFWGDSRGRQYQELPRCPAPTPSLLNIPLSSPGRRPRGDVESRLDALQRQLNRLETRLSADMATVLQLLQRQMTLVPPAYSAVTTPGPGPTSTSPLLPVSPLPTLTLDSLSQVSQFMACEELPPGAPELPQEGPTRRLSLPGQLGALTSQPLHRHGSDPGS
Chain of Dipeptidyl peptidase 8 (Q6V1X1 whole entry): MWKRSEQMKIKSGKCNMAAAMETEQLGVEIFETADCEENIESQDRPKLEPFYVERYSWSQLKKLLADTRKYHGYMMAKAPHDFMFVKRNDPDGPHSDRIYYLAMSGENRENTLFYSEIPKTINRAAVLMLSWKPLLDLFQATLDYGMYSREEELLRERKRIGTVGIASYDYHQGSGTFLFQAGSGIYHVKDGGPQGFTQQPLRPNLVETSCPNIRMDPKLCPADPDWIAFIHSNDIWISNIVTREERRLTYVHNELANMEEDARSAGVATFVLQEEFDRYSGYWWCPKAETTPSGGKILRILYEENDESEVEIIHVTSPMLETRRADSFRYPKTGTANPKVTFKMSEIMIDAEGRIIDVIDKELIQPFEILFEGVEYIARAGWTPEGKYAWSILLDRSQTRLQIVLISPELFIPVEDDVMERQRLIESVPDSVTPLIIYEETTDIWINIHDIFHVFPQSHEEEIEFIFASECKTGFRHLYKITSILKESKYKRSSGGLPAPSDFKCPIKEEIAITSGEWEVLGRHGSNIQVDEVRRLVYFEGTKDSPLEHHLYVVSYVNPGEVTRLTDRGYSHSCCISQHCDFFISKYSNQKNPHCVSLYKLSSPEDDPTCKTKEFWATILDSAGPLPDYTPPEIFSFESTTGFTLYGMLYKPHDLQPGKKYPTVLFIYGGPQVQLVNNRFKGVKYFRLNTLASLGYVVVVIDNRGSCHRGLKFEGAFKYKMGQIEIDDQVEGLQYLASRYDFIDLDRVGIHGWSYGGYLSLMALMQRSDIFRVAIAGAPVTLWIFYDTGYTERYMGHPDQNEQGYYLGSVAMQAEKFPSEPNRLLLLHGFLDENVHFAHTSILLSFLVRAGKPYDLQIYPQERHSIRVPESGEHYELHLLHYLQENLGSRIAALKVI
Chain of Dipeptidyl peptidase 9 (Q86TI2 whole entry): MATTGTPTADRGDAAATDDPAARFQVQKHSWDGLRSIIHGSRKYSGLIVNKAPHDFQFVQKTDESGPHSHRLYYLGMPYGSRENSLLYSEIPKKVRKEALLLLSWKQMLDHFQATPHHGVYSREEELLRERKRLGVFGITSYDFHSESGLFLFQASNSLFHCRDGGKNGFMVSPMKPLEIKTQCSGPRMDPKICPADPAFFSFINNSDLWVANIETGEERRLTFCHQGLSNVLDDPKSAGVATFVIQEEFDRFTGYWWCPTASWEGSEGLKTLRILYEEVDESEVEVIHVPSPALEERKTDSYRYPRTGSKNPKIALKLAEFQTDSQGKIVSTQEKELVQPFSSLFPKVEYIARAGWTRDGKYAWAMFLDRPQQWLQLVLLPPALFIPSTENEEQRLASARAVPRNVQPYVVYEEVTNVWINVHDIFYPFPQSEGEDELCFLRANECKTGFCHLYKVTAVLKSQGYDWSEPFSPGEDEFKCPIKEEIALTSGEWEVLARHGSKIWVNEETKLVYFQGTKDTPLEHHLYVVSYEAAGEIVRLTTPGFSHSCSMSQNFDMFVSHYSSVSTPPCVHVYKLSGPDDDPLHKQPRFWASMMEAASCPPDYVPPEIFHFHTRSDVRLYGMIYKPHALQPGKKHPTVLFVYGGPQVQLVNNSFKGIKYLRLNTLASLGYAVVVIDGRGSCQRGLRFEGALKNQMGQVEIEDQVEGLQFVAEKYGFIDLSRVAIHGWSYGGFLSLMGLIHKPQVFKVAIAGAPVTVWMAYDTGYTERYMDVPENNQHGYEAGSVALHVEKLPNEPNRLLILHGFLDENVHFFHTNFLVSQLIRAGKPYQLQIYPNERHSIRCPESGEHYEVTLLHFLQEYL
Chain of Cytochrome P450 2D6 (P10635 whole entry): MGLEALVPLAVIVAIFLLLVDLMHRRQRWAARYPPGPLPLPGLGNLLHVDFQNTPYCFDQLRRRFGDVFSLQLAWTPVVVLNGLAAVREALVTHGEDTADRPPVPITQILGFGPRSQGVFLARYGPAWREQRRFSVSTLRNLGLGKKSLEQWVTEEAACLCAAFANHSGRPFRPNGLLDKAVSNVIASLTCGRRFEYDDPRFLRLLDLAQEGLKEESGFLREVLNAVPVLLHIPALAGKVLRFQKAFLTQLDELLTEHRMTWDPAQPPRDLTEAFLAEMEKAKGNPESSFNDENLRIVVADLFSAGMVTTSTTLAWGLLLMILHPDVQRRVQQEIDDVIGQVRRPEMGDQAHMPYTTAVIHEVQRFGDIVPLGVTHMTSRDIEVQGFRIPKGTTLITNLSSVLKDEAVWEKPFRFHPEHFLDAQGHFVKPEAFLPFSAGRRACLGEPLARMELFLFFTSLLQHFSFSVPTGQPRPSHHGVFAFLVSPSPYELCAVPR
Chain of Dipeptidyl peptidase 4 (P28843 whole entry): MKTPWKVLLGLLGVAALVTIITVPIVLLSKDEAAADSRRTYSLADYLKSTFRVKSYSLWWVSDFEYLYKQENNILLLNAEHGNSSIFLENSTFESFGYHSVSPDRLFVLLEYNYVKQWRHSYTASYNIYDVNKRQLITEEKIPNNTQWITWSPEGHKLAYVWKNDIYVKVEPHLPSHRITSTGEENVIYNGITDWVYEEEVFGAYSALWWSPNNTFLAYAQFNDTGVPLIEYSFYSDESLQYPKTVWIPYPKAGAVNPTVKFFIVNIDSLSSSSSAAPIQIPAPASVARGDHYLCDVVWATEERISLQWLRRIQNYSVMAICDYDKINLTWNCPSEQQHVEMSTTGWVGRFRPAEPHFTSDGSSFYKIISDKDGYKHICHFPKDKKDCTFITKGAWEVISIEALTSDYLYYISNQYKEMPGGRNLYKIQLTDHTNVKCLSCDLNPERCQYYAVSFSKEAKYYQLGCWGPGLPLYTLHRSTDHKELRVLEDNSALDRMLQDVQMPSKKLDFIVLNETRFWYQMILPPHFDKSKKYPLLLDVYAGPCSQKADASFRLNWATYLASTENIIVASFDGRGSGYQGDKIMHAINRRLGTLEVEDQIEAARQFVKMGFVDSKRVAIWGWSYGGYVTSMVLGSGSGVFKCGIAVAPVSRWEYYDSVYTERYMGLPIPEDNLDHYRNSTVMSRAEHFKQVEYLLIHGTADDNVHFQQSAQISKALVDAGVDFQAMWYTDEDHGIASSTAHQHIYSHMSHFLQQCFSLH

Compound | pIC50 (Dipeptidyl peptidase 8) | pIC50 (Dipeptidyl peptidase 9) | half-life [1] [h] | bioavailability [2] [%] | clearance [3] [mL/min/kg] | also measured
N[C@H]1Cn2c(nc3cnc(C(F)(F)F)cc32)C[C@@H]1c1cc(F)c(F)cc1F.O=C(O)C(F)(F)F.O=C(O)C(F)(F)F |  |  | 8.7 | 110 | 1.4 | pIC50 (Cytochrome P450 2D6): 4.96; pIC50 [4]: 4.02
N[C@H]1Cn2c(nc3ccncc32)C[C@@H]1c1cc(F)c(F)cc1F |  |  |  |  |  | pIC50 (Dipeptidyl peptidase 2): < 4.00
CC(=O)Nc1ccc2c(c1)nc1n2C[C@H](N)[C@@H](c2cc(F)c(F)cc2F)C1 |  | < 4.00 |  |  |  | 
N[C@H]1Cn2c(nc3c(F)cc(F)cc32)C[C@@H]1c1cc(F)c(F)cc1F | < 4.00 |  |  |  |  | 
N[C@H]1Cn2c(nc3cnc(F)cc32)C[C@@H]1c1cc(F)c(F)cc1F.O=C(O)C(F)(F)F.O=C(O)C(F)(F)F | < 4.00 |  | 17 | 87 | 0.5 | pIC50 [19]: 4.09; pIC50 (Cytochrome P450 2D6): 4.92; pIC50 [4]: 5.82
CCS(=O)(=O)c1ccc2c(c1)nc1n2C[C@H](N)[C@@H](c2cc(F)c(F)cc2F)C1 | < 4.00 | < 4.00 |  |  |  | pIC50 (Dipeptidyl peptidase 2): < 4.00
CN(C)C(=O)c1ccc2c(c1)nc1n2C[C@H](N)[C@@H](c2cc(F)c(F)cc2F)C1 | < 4.00 | < 4.00 |  |  |  | 
N[C@H]1Cn2c(nc3cccnc32)C[C@@H]1c1cc(F)c(F)cc1F | < 4.00 | < 4.00 |  |  |  | 
CS(=O)(=O)Nc1ccc2c(c1)nc1n2C[C@H](N)[C@@H](c2cc(F)c(F)cc2F)C1 | < 4.00 |  |  |  |  | pIC50 [19]: 5.60
N[C@H]1Cn2c(nc3cnccc32)C[C@@H]1c1cc(F)c(F)cc1F.O=C(O)C(F)(F)F.O=C(O)C(F)(F)F | < 4.00 | < 4.00 | 2.6 | 140 | 8.7 | remaining at 1 h [20]: 83%; remaining at 1 h [21]: 97%; remaining at 1 h [22]: 69%; remaining at 1 h [23]: 92%; remaining at 1 h [24]: 99%; pIC50 (Cytochrome P450 2D6): 4.89; remaining at 1 h [25]: 99%; remaining at 1 h [26]: 35%; pIC50 (Dipeptidyl peptidase 2; sf9): < 4.00; remaining at 1 h [27]: 94%
N[C@H]1Cn2c(nc3ncccc32)C[C@@H]1c1cc(F)c(F)cc1F.O=C(O)C(F)(F)F.O=C(O)C(F)(F)F | < 4.00 | < 4.00 | 3.8 | 96 | 3.9 | pIC50 [19]: 4.05; pIC50 (Cytochrome P450 2D6): 5.28; pIC50 [4]: < 4.00
N[C@H]1Cn2c(nc3c(F)c(F)c(F)cc32)C[C@@H]1c1cc(F)c(F)cc1F | < 4.00 |  |  |  |  | 

Now from value to molecule, other results behind:

pIC50 (Dipeptidyl peptidase 8) | pIC50 (Dipeptidyl peptidase 9) | half-life [1] [h] | bioavailability [2] [%] | clearance [3] [mL/min/kg] | Compound | also measured
< 4.00 | < 4.00 |  |  |  | N[C@H]1Cn2c(nc3c(F)cccc32)C[C@@H]1c1cc(F)c(F)cc1F | 
< 4.00 | < 4.00 |  |  |  | CS(=O)(=O)c1ccc2nc3n(c2c1)C[C@H](N)[C@@H](c1cc(F)c(F)cc1F)C3 | pIC50 (Dipeptidyl peptidase 2): < 4.00
< 4.00 | < 4.00 |  |  |  | N[C@H]1Cn2c(nc3ccccc32)C[C@@H]1c1cc(F)c(F)cc1F | 
< 4.00 |  |  |  |  | COc1ccc2c(c1)nc1n2C[C@H](N)[C@@H](c2cc(F)c(F)cc2F)C1 | 
< 4.00 |  |  |  |  | N[C@H]1Cn2c(nc3ccc(C(F)(F)F)cc32)C[C@@H]1c1cc(F)c(F)cc1F | 
< 4.00 | < 4.00 |  |  |  | Cl.N[C@H]1Cn2c(nc3cnccc32)C[C@@H]1c1cc(F)c(F)cc1F | pIC50 (Dipeptidyl peptidase 4): 7.35; half-life [5]: 13 h; concentration at 1 h [6]: 691 nM; Activity (Mus musculus [7]): 27%; half-life [8]: 1 h; bioavailability [9]: 73%; bioavailability [10]: 120%; clearance [11]: 2.7 mL/min/kg; bioavailability [12]: 11%; inhibition in vivo at 1 mg/kg (Mus musculus [13]): 88%; fraction unbound [14]: 0.55; half-life [15]: 1.9 h; pIC50 (Cytochrome P450 2D6): 4.89; clearance [16]: 36 mL/min/kg; clearance [17]: 35 mL/min/kg; pIC50 (Dipeptidyl peptidase 2): < 4.00; Activity (Mus musculus [18]): 49%; pIC50 [4]: < 4.00
< 4.00 |  |  |  |  | N[C@H]1Cn2c(nc3cc(F)ccc32)C[C@@H]1c1cc(F)c(F)cc1F | 
< 4.00 | < 4.00 | 7.6 | 55 | 4.8 | N[C@H]1Cn2c(nc3cc(C(F)(F)F)ccc32)C[C@@H]1c1cc(F)c(F)cc1F.O=C(O)C(F)(F)F | 
< 4.00 | < 4.00 | 3.4 | 63 | 2.2 | CS(=O)(=O)c1ccc2c(c1)nc1n2C[C@H](N)[C@@H](c2cc(F)c(F)cc2F)C1.O=C(O)C(F)(F)F | pIC50 (Cytochrome P450 2D6): 5.82; pIC50 [4]: < 4.00
< 4.00 |  | 1.4 | 37 | 25 | N[C@H]1Cn2c(nc3ccc(F)cc32)C[C@@H]1c1cc(F)c(F)cc1F.O=C(O)C(F)(F)F | 
< 4.00 | < 4.00 |  |  |  | Cc1ccc2c(c1)nc1n2C[C@H](N)[C@@H](c2cc(F)c(F)cc2F)C1 | 
 | < 4.00 |  |  |  | N[C@H]1Cn2c(nc3ccc(OC(F)(F)F)cc32)C[C@@H]1c1cc(F)c(F)cc1F | 
< 4.00 | < 4.00 | 0.4 | 24 | 61 | N[C@H]1Cn2c(nc3cc(C(=O)O)ccc32)C[C@@H]1c1cc(F)c(F)cc1F.O=C(O)C(F)(F)F | pIC50 (Dipeptidyl peptidase 2): < 4.00
